# Source: patent publication US7816522B2, “Triazolone derivatives” (Eisai Co., Ltd., priority 2006, dated 2010)
# Structures can show the parent of a compound that is named as a salt.
# Biological target: T1, human clotting factor VIIa (Homo sapiens, UniProt P08709)
# T1 construct: a human clotting factor VIIa (hereinafter, “Factor VIIa”) purified sample; purchased Enzyme Research Laboratories HFVIIa
# Assay: Inhibitory activity against clotting factor VIIa (chromogenic substrate Spectrozyme FVIIa, TF/Factor VIIa enzyme solution)
# Type: biochemical
# Settings: human Factor VIIa 5 nmol/L with human TF 10 nmol/L, room temperature 40 minutes, 405 nm
# Method in brief: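 Human Factor VIIa (5 nmol/L) with human TF (10 nmol/L) in Tris-BSA buffer pH 7.4 containing 15 mmol/L CaCl2 and cephalin, with Spectrozyme FVIIa substrate. Reaction 40 min at room temperature; 4-nitroanilide read at 405 nm. IC50 by non-linear regression over 100 μmol/L–0.1 nmol/L.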
# T1 sequence (P08709 213-466 limits assumed): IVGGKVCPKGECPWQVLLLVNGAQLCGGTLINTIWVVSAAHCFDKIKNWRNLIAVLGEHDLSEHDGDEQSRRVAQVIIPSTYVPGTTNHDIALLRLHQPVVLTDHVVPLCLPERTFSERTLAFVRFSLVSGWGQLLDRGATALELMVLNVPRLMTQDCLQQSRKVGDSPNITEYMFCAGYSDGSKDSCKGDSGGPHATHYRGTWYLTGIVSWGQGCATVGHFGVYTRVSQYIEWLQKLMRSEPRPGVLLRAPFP
# T1 sequence (P08709 61-212 limits assumed): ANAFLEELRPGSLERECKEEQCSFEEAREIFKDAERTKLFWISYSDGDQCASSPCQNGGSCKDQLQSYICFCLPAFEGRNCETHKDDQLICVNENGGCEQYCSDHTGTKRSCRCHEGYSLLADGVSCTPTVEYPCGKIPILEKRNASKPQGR
# T1 sequence (P13726 33-295 partner): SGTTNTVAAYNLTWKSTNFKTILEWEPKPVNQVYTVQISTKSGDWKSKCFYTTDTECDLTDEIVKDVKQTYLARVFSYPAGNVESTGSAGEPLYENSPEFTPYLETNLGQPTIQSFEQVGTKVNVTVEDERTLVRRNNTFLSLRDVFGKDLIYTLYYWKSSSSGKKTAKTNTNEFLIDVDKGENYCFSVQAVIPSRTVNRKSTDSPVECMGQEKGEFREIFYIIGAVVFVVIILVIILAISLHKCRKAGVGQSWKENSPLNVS
row,SMILES,IC50
1,"Cc1cc(C(Nc2ccc(C(=N)N)cc2)c2nn(-c3ncccn3)c(=O)[nH]2)cc2c1OCOC2 (racemic) [Example 97, 4-{[(R) and (S)-(8-methyl-4H-benzo[1,3]dioxin-6-yl)-(5-oxo-1-pyrimidin-2-yl-4,5-dihydro-1H-[1,2,4]triazol-3-yl)methyl]amino}benzamidine acetate]",11.3 nM
2,"COc1cc(OCCO)c(F)c(C(Nc2ccc(C(=N)N)cc2)c2nn(-c3ncc[nH]c3=O)c(=O)[nH]2)c1 (racemic) [Example 199, (R) and (S)-4-({[2-Fluoro-3-(2-hydroxyethoxy)-5-methoxyphenyl]-[5-oxo-1-(3-oxo-3,4-dihydropyrazin-2-yl)-4,5-dihydro-1H-[1,2,4]triazol-3-yl]methyl}amino)benzamidine acetate]",24.1 nM
3,"COc1cc(C(Nc2ccc(C(=N)N)cc2)c2nn(-c3ncccc3N)c(=O)[nH]2)cc(C)n1 (racemic) [Example 19, (R) and (S)-4-({[1-(3-aminopyridin-2-yl)-5-oxo-4,5-dihydro-1H-[1,2,4]triazol-3-yl]-(2-methoxy-6-methylpyridin-4-yl)methyl}amino)benzamidine acetate]",12.8 nM
4,"CCOc1cc(C(Nc2ccc(C(=N)N)cc2)c2nn(-c3ncccn3)c(=O)[nH]2)cnc1OC (racemic) [Example 160, 4-{[(R) and (S)-(5-ethoxy-6-methoxypyridin-3-yl)-(5-oxo-1-pyrimidin-2-yl-4,5-dihydro-1H-[1,2,4]triazol-3-yl)methyl]amino}benzamidine acetate]",9.4 nM
5,"COc1cc(OC)c(F)c(C(Nc2ccc(C(=N)N)cc2)c2nn(-c3ncccc3N)c(=O)[nH]2)c1 (racemic) [Example 137, (R) and (S)-4-({[1-(3-aminopyridin-2-yl)-5-oxo-4,5-dihydro-1H-[1,2,4]triazol-3-yl]-(2-fluoro-3,5-dimethoxyphenyl)methyl}amino)benzamidine acetate]",10.3 nM
6,"COCc1cc(OC)cc(C(Nc2ccc(C(=N)N)cc2)c2nn(-c3ncccn3)c(=O)[nH]2)c1 (racemic) [Example 10, (R) and (S)-4-{[(3-methoxy-5-methoxymethylphenyl)-(5-oxo-1-pyrimidin-2-yl-4,5-dihydro-1H-[1,2,4]triazol-3-yl)methyl]amino}benzamidine acetate]",21.1 nM
7,"COc1cc(OC)c(F)c(C(Nc2ccc(C(=N)N)cc2)c2nn(-c3cccc[n+]3[O-])c(=O)[nH]2)c1 (single isomer, unassigned) [Example 2]",9.4 nM
8,"COc1cc(COCCO)c(F)c(C(Nc2ccc(C(=N)N)cc2)c2nn(-c3ncccn3)c(=O)[nH]2)c1 (single isomer, unassigned) [Example 216, 4-{[[2-Fluoro-3-(2-hydroxyethoxymethyl)-5-methoxyphenyl]-(5-oxo-1-pyrimidin-2-yl-4,5-dihydro-1H-[1,2,4]triazol-3-yl)methyl]amino}benzamidine]",13.4 nM
9,"COc1cc(C(Nc2ccc(C(=N)N)cc2)c2nn(-c3ncsc3C(=O)O)c(=O)[nH]2)cc(OCCO)c1OC (racemic) [Example 233, (R) and (S)-4-(3-{(4-Carbamimidoylphenylamino)-[3-(2-hydroxyethoxy)-4,5-dimethoxyphenyl]methyl}-5-oxo-4,5-dihydro-[1,2,4]triazol-1-yl)thiazole-5-carboxylic acid]",23.8 nM
10,"COc1cc(C(Nc2ccc(C(=N)N)cc2)c2nn(-c3ncccn3)c(=O)[nH]2)cc(OC)n1 (racemic) [Example 54, (R) and (S)-4-{[(2,6-dimethoxypyridin-4-yl)-(5-oxo-1-pyrimidin-2-yl-4,5-dihydro-1H-[1,2,4]triazol-3-yl)methyl]amino}benzamidine acetate]",18.7 nM
11,"COc1cc(OCF)cc(C(Nc2ccc(C(=N)N)cc2)c2nn(-c3ncccn3)c(=O)[nH]2)c1 (racemic) [Example 104, 4-{[(R) and (S)-(3-fluoromethoxy-5-methoxyphenyl)-(5-oxo-1-pyrimidin-2-yl-4,5-dihydro-1H-[1,2,4]triazol-3-yl)methyl]amino}benzamidine acetate]",8.9 nM
12,"COc1cc(C(Nc2ccc(C(=N)N)cc2)c2nn(-c3ncccn3)c(=O)[nH]2)ccc1OCC#N (racemic) [Example 16, (R) and (S)-4-{[(4-cyanomethoxy-3-methoxyphenyl)-(5-oxo-1-pyrimidin-2-yl-4,5-dihydro-1H-[1,2,4]triazol-3-yl)methyl]amino}benzamidine acetate]",11.5 nM

# The next compounds have a lower IC50 than those just listed; values first:
row,IC50,SMILES
1,7.8 nM,"CCOC(=O)c1cn[nH]c1-n1nc(C(Nc2ccc(C(=N)N)cc2)c2cc(OC)c3c(c2F)OCCO3)[nH]c1=O (stereo not shown) [Example 197, 5-{3-[(4-Carbamimidoylphenylamino)-(5-fluoro-8-methoxy-2,3-dihydrobenzo[1,4]dioxin-6-yl)methyl]-5-oxo-4,5-dihydro-[1,2,4]triazol-1-yl}-1H-pyrazole-4-carboxylic acid ethyl ester trifluoroacetate]"
2,7.8 nM,"COc1cc(OCCO)c(F)c(C(Nc2ccc(C(=N)N)cc2)c2nn(-c3ncccc3N)c(=O)[nH]2)c1 (racemic) [Example 201, 4-({(R) and (S)-[1-(3-Aminopyridin-2-yl)-5-oxo-4,5-dihydro-1H-[1,2,4]triazol-3-yl]-[2-fluoro-3-(2-hydroxyethoxy)-5-methoxyphenyl]methyl}amino)benzamidine acetate]"
3,4.6 nM,"COc1cc(C(Nc2ccc(C(=N)N)cc2)c2nn(-c3ncccc3N)c(=O)[nH]2)cnc1OC (racemic) [Example 186, 4-{[(R) and (S)-[1-(3-Aminopyridin-2-yl)-5-oxo-4,5-dihydro-1H-[1,2,4]triazol-3-yl]-(5,6-dimethoxypyridin-3-yl)methyl]amino}benzamidine acetate]"
4,4.4 nM,"COc1ccc(C(Nc2ccc(C(=N)N)c(F)c2)c2nn(-c3ccccc3C(=O)O)c(=O)[nH]2)cc1OC (racemic) [Example 37, (R) and (S)-2-{3-[(4-carbamimidoyl-3-fluorophenylamino)-(3,4-dimethoxyphenyl)methyl]-5-oxo-4,5-dihydro-[1,2,4]triazol-1-yl}benzoic acid acetate]"
5,3.8 nM,"COc1ccc(C(Nc2ccc(C(=N)N)cc2)c2nn(-c3ccccc3C(=O)O)c(=O)[nH]2)cc1OC (racemic) [Example 36, (R) and (S)-2-{3-[(4-carbamimidoylphenylamino)-(3,4-dimethoxyphenyl)methyl]-5-oxo-4,5-dihydro-[1,2,4]triazol-1-yl}benzoic acid acetate]"
6,3.1 nM,"CCc1cc(C(Nc2ccc(C(=N)N)cc2)c2nn(-c3ncccn3)c(=O)[nH]2)cc2c1OCOC2 (racemic) [Example 27, (R) and (S)-4-{[(8-ethyl-4H-benzo[1,3]dioxin-6-yl)-(5-oxo-1-pyrimidin-2-yl-4,5-dihydro-1H-[1,2,4]triazol-3-yl)methyl]amino}benzamidine acetate]"
7,2.8 nM,"COc1cc(C(Nc2ccc(C(=N)N)cc2)c2nn(-c3ccsc3C(=O)O)c(=O)[nH]2)c(F)c2c1OCCO2 (racemic) [Example 168, (R) and (S)-3-{3-[(4-carbamimidoylphenylamino)-(5-fluoro-8-methoxy-2,3-dihydrobenzo[1,4]dioxin-6-yl)methyl]-5-oxo-4,5-dihydro-[1,2,4]triazol-1-yl}thiophene-2-carboxylic acid]"
